In US11339171B2, “MDM2 inhibitors” (Gan & Lee Pharmaceuticals, priority 2017, dated 2022):

Columns and labels:
[1] = tested on: human osteosarcoma cell line SJSA-1; test: Inhibition of proliferation of human osteosarcoma cell line SJSA-1 (DAPI staining, In Cell Analyzer); conditions: Homo sapiens, SJSA-1, 72 h, read-out: IC50 (nM), inhibitory activity on proliferation of human osteosarcoma cell line SJSA-1, SJSA-1, incubated 72 h
MDM2 = target: T1, MDM2 (Homo sapiens, UniProt Q00987); test: Inhibition test of MDM2-P53 (GST-MDM2, Biotin-P53, Anti-GST-Tb, SA-XL665); format: binding
T1 construct: made in house
T1 sequence (Q00987 whole entry): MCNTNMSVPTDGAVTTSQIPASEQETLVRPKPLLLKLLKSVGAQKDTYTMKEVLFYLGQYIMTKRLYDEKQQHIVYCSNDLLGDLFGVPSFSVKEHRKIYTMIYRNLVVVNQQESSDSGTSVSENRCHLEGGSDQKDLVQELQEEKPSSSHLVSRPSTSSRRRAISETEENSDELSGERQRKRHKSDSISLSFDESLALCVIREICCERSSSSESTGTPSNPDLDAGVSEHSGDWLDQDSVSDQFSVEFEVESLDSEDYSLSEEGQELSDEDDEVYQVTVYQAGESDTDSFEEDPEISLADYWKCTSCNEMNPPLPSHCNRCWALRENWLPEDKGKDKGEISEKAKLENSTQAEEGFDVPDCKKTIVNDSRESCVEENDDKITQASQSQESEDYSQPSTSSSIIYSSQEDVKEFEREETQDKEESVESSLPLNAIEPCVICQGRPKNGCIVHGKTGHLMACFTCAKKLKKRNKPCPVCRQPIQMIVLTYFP
In short: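 Compounds, serially diluted 5-fold (twelve concentrations), were shaken for 90 min at 25° C with a mix of GST-MDM2 (4 nM final), Biotin-P53, anti-GST-Tb and SA-XL665. Buffer: 1×PBS, 0.1% BSA, 5 mM DTT, 1 mM AEBSF; signal read on a microplate reader.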

Compound	IC50 [1]	IC50 (MDM2)
COc1cc(C(F)(F)F)ccc1-c1nc2c(n1C(C)C)[C@@]1(C(=O)Nc3cc(Cl)ccc31)N(c1cccc(Cl)c1)C2=O [Example S-129, (S)-6-chloro-5′-(3-chlorophenyl)-3′-isopropyl-2′-(2-methoxy-4-(trifluoromethyl)phenyl)-3′H-spiro[dihydroindole-3,4′-pyrrolo[3,4-d]imidazole]-2,6′(5′H)-dione]	146 nM	3.84 nM
COc1nc(OC(C)C)ncc1-c1nc2c(n1C(C)C)[C@@]1(C(=O)Nc3cc(Cl)ccc31)N(c1cc(Cl)cnc1C)C2=O [Example S-136, (S)-6-chloro-5′-(5-chloro-2-methylpyridin-3-yl)-2′-(2-isopropoxy-4-methoxypyrimidin-5-yl)-3′-isopropyl-3′H-spiro[dihydroindole-3,4′-pyrrolo[3,4-d]imidazole]-2,6′(5′H)-dione]	108 nM	2.35 nM
CCOc1cc(OC)c(-c2nc3c(n2C(C)C)[C@@]2(C(=O)Nc4cc(Cl)ccc42)N(c2cc(F)cc(Cl)c2)C3=O)cn1 [Example S-139, (S)-6-chloro-5′-(3-chloro-5-fluorophenyl)-2′-(6-ethoxy-4-methoxypyridin-3-yl)-3′-isopropyl-3′H-spiro[dihydroindole-3,4′-pyrrolo[3,4-d]imidazole]-2,6′(5′H)-dione]	50.7 nM	1.36 nM
COc1nc(OCC(F)(F)F)ncc1-c1nc2c(n1C(C)C)[C@@]1(C(=O)Nc3cc(Cl)ccc31)N(c1cc(Cl)ccc1C)C2=O [Example S-141, (S)-6-chloro-5′-(5-chloro-2-methylphenyl)-3′-isopropyl-2′-(4-methoxy-2-(2,2,2-trifluoroethoxy)pyrimidin-5-yl)-3′H-spiro[dihydroindole-3,4′-pyrrolo[3,4-d]imidazole]-2,6′(5′H)-dione]	73.6 nM	3.42 nM
COc1cc(C(F)(F)F)ncc1-c1nc2c(n1C(C)C)[C@@]1(C(=O)Nc3cc(Cl)ccc31)N(c1cccc(Cl)c1)C2=O [Example S-142, (S)-6-chloro-5′-(3-chlorophenyl)-3′-isopropyl-2′-(4-methoxy-6-(trifluoromethyl)pyridin-3-yl)-3′H-spiro[dihydroindole-3,4′-pyrrolo[3,4-d]imidazole]-2,6′(5′H)-dione]	138 nM	1.45 nM
COc1cc(C2CC2)ncc1-c1nc2c(n1C(C)C)[C@@]1(C(=O)Nc3cc(Cl)ccc31)N(c1cc(Cl)cnc1C)C2=O [Example S-143, (S)-6-chloro-5′-(5-chloro-2-methylpyridin-3-yl)-2′-(6-cyclopropyl-4-methoxypyridin-3-yl)-3′-isopropyl-3′H-spiro[dihydroindole-3,4′-pyrrolo[3,4-d]imidazole]-2,6′(5′H)-dione]	24.9 nM	1.1 nM
COc1cc(C(F)(F)F)ccc1-c1nc2c(n1C(C)C)[C@@]1(C(=O)Nc3cc(Cl)ccc31)N(c1cc(Cl)cnc1C)C2=O [Example S-144, (S)-6-chloro-5′-(5-chloro-2-methylpyridin-3-yl)-3′-isopropyl-2′-(2-methoxy-4-(trifluoromethyl)phenyl)-3′H-spiro[dihydroindole-3,4′-pyrrolo[3,4-d]imidazole]-2,6′(5′H)-dione]	101 nM	3.84 nM
COc1cc(C2CC2)ccc1-c1nc2c(n1C(C)C)[C@@]1(C(=O)Nc3cc(Cl)ccc31)N(c1cc(Cl)cnc1C)C2=O [Example S-145, (S)-6-chloro-5′-(5-chloro-2-methylpyridin-3-yl)-2′-(4-cyclopropyl-2-methoxyphenyl)-3′-isopropyl-3′H-spiro[dihydroindole-3,4′-pyrrolo[3,4-d]imidazole]-2,6′(5′H)-dione]	28.2 nM	2.05 nM
CCOc1ccc(-c2nc3c(n2C(C)C)[C@@]2(C(=O)Nc4cc(Cl)ccc42)N(c2cc(Cl)ccc2C)C3=O)c(OC)n1 [Example S-146, (S)-6-chloro-5′-(5-chloro-2-methylphenyl)-2′-(6-ethoxy-2-methoxypyridin-3-yl)-3′-isopropyl-3′H-spiro[dihydroindole-3,4′-pyrrolo[3,4-d]imidazole]-2,6′(5′H)-dione]	67.8 nM	5.44 nM
